{"source": "patent US8435544B2", "about": "“Ophthalmic compositions comprising calcineurin inhibitors or mTOR inhibitors” (Lux Biosciences, Inc., priority 2007, dated 2013)", "key": {"[1]": {"test": "Ocular distribution and pharmacokinetics of 14C-voclosporin in NZW rabbits", "type": "in vivo, New Zealand White (NZW) rabbits", "settings": "for AUC / Cmax: bilateral ocular; for Cmax: Blood", "description": "(§1) NZW rabbits (30 females/8 males) were used in a single dose (SD) and 7-day repeat dose (RD) study (see Table 38). DB rabbits (16 females) were used in a single dose study (see Table 39). […] Blood and ocular tissue radioactivity levels were assessed at designated time points via combustion followed by liquid scintillation counting.\n(§2) At each sampling point, a t-test was used to compare the tissue concentrations within or between the two strains of rabbits. SigmaStat® 3.5 (Systat, Inc., San Jose, Calif.) was used for the statistical analyses (p<0.05). […] Pharmacokinetic analysis was performed using WinNonlin 5.2 (Pharsight, Corporation, Mountain View, Calif.). Cmax and Tmax, and where calculable AUC and t1/2, were reported."}, "[2]": {"tested_on": "canine keratoconjunctivitis sicca (KCS)", "test": "Topical voclosporin clinical study in dogs with KCS", "type": "in vivo", "description": "The study covered assessment of tear production (as measured by the Schirmer Tear Test (STT)), the response of clinical observation of the cornea, and participating ophthalmologists' overall assessment of efficacy.\nDogs diagnosed with chronic (>3 months in duration) immune-mediated KCS were selected from the clinic populations of the North Carolina State Veterinary Teaching Hospital. Diagnosis of immune-mediated KCS was made by exclusion of other causes of KCS.\nPhysical and ophthalmic examinations were performed at 0, 7, 14, and 28 days."}, "[3]": {"test": "Ocular distribution and pharmacokinetics of 14C-voclosporin in DB rabbits", "type": "in vivo, Dutch Belted (DB) rabbits", "description": "as §1, §2"}, "[4]": {"settings": "topical mixed micellar composition"}}, "data": [{"compound": "C=C/C=C/C[C@@H](C)[C@@H](O)[C@H]1C(=O)N[C@@H](CC)C(=O)N(C)CC(=O)N(C)[C@@H](CC(C)C)C(=O)N[C@@H](C(C)C)C(=O)N(C)[C@@H](CC(C)C)C(=O)N[C@@H](C)C(=O)N[C@H](C)C(=O)N(C)[C@@H](CC(C)C)C(=O)N(C)[C@@H](CC(C)C)C(=O)N(C)[C@@H](C(C)C)C(=O)N1C", "note": "[voclosporin, reference compound]", "values": [{"measurement": "tissue accumulation", "setting": "[1]; after multiple dosing", "value": "minimal tissue accumulation"}, {"measurement": "tissue levels at 24 hours", "setting": "[1]; single (1 day) topical dose, female NZW rabbits", "value": "Therapeutic levels of voclosporin were noticed even at the 24-hour mark"}, {"measurement": "level in the choriod/retina", "setting": "[1]; [4]", "value": "high levels"}, {"measurement": "level in the vitreous humor", "setting": "[1]; [4]", "value": "low levels"}, {"measurement": "adverse effects", "setting": "[2]; 30 days treatment period, 0.2 wt % voclosporin topically every 12 hours", "value": "No adverse effects were noted"}, {"measurement": "maintenance of STT", "setting": "[2]; dogs with KCS, 30 days", "value": "maintained the STT in these dogs for 30 days"}]}, {"compound": "C=CC=CCC(C)C(O)C1C(=O)NC(CC)C(=O)N(C)CC(=O)N(C)C(CC(C)C)C(=O)NC(C(C)C)C(=O)N(C)C(CC(C)C)C(=O)NC(C)C(=O)NC(C)C(=O)N(C)C(CC(C)C)C(=O)N(C)C(CC(C)C)C(=O)N(C)C(C(C)C)C(=O)N1C", "note": "(stereo not drawn) [^14C-voclosporin]", "values": [{"measurement": "mortality, morbidity, clinical irritation", "setting": "[1]; 35 μL of 0.2% 14C-voclosporin mixed micellar formulation, single or daily for 7 days, NZW and DB rabbits", "value": "No mortality, morbidity or evidence of clinical irritation"}, {"measurement": "AUC", "setting": "[1]; Aqueous Humor, repeat dose (RD, QD for 7 days), female NZW rabbits", "value": 96, "unit": "hr * ng eq./g"}, {"measurement": "AUC", "setting": "[1]; Aqueous Humor, single dose (SD), female NZW rabbits", "value": 45, "unit": "hr * ng eq./g"}, {"measurement": "Cmax", "setting": "[1]; repeat dose (RD, QD for 7 days), female NZW rabbits", "value": "BQL (Below Quantifiable Limit (<0.1 ng/mL))"}, {"measurement": "Cmax", "setting": "[1]; single dose (SD), female NZW rabbits", "value": "BQL (Below Quantifiable Limit (<0.1 ng/mL))"}, {"measurement": "AUC", "setting": "[1]; Choroid/Retina, repeat dose (RD, QD for 7 days), female NZW rabbits", "value": 897, "unit": "hr * ng eq./g"}, {"measurement": "AUC", "setting": "[1]; Choroid/Retina, single dose (SD), female NZW rabbits", "value": 472, "unit": "hr * ng eq./g"}, {"measurement": "AUC", "setting": "[1]; Cornea, repeat dose (RD, QD for 7 days), female NZW rabbits", "value": 54624, "unit": "hr * ng eq./g"}, {"measurement": "AUC", "setting": "[1]; Cornea, single dose (SD), female NZW rabbits", "value": 23166, "unit": "hr * ng eq./g"}, {"measurement": "AUC", "setting": "[1]; Iris/Ciliary Body, repeat dose (RD, QD for 7 days), female NZW rabbits", "value": 1952, "unit": "hr * ng eq./g"}, {"measurement": "AUC", "setting": "[1]; Iris/Ciliary Body, single dose (SD), female NZW rabbits", "value": 382, "unit": "hr * ng eq./g"}, {"measurement": "AUC", "setting": "[1]; Lacrimal Gland, repeat dose (RD, QD for 7 days), female NZW rabbits", "value": 1109, "unit": "hr * ng eq./g"}, {"measurement": "AUC", "setting": "[1]; Lacrimal Gland, single dose (SD), female NZW rabbits", "value": 416, "unit": "hr * ng eq./g"}, {"measurement": "AUC", "setting": "[1]; Lens, repeat dose (RD, QD for 7 days), female NZW rabbits", "value": 356, "unit": "hr * ng eq./g"}, {"measurement": "AUC", "setting": "[1]; Lens, single dose (SD), female NZW rabbits", "value": 47, "unit": "hr * ng eq./g"}, {"measurement": "AUC", "setting": "[1]; Lower Bulbar Conjunctiva, repeat dose (RD, QD for 7 days), female NZW rabbits", "value": 16585, "unit": "hr * ng eq./g"}, {"measurement": "AUC", "setting": "[1]; Lower Bulbar Conjunctiva, single dose (SD), female NZW rabbits", "value": 12029, "unit": "hr * ng eq./g"}, {"measurement": "AUC", "setting": "[1]; Lower Eyelid, repeat dose (RD, QD for 7 days), female NZW rabbits", "value": 358791, "unit": "hr * ng eq./g"}, {"measurement": "AUC", "setting": "[1]; Lower Eyelid, single dose (SD), female NZW rabbits", "value": 207630, "unit": "hr * ng eq./g"}, {"measurement": "AUC", "setting": "[1]; Nictitating Membrane, repeat dose (RD, QD for 7 days), female NZW rabbits", "value": 15964, "unit": "hr * ng eq./g"}, {"measurement": "AUC", "setting": "[1]; Nictitating Membrane, single dose (SD), female NZW rabbits", "value": 12135, "unit": "hr * ng eq./g"}, {"measurement": "AUC", "setting": "[1]; Optic Nerve, repeat dose (RD, QD for 7 days), female NZW rabbits", "value": 1805, "unit": "hr * ng eq./g"}, {"measurement": "AUC", "setting": "[1]; Optic Nerve, single dose (SD), female NZW rabbits", "value": 569, "unit": "hr * ng eq./g"}, {"measurement": "AUC", "setting": "[1]; Sclera, repeat dose (RD, QD for 7 days), female NZW rabbits", "value": 3825, "unit": "hr * ng eq./g"}, {"measurement": "AUC", "setting": "[1]; Sclera, single dose (SD), female NZW rabbits", "value": 2646, "unit": "hr * ng eq./g"}, {"measurement": "AUC", "setting": "[1]; Submandibular Lymph Node, repeat dose (RD, QD for 7 days), female NZW rabbits", "value": 1190, "unit": "hr * ng eq./g"}, {"measurement": "AUC", "setting": "[1]; Submandibular Lymph Node, single dose (SD), female NZW rabbits", "value": 893, "unit": "hr * ng eq./g"}, {"measurement": "AUC", "setting": "[1]; Tear, repeat dose (RD, QD for 7 days), female NZW rabbits", "value": 230878, "unit": "hr * ng eq./g"}, {"measurement": "AUC", "setting": "[1]; Tear, single dose (SD), female NZW rabbits", "value": 168259, "unit": "hr * ng eq./g"}, {"measurement": "AUC", "setting": "[1]; Upper Bulbar Conjunctiva, repeat dose (RD, QD for 7 days), female NZW rabbits", "value": 19944, "unit": "hr * ng eq./g"}, {"measurement": "AUC", "setting": "[1]; Upper Bulbar Conjunctiva, single dose (SD), female NZW rabbits", "value": 14782, "unit": "hr * ng eq./g"}, {"measurement": "AUC", "setting": "[1]; Upper Eyelid, repeat dose (RD, QD for 7 days), female NZW rabbits", "value": 98656, "unit": "hr * ng eq./g"}, {"measurement": "AUC", "setting": "[1]; Upper Eyelid, single dose (SD), female NZW rabbits", "value": 114651, "unit": "hr * ng eq./g"}, {"measurement": "AUC", "setting": "[1]; Vitreous Humor, repeat dose (RD, QD for 7 days), female NZW rabbits", "value": 23, "unit": "hr * ng eq./g"}, {"measurement": "AUC", "setting": "[1]; Vitreous Humor, single dose (SD), female NZW rabbits", "value": 27, "unit": "hr * ng eq./g"}, {"measurement": "concentrations in remaining ocular tissues", "setting": "[1]; after a single dose", "value": "20-223 ng eq/g tissue"}, {"measurement": "lowest concentrations of radioactivity in ocular tissues", "setting": "[1]; after a single dose, aqueous and vitreous humor, and the lens", "value": "1-11 ng eq/g tissue"}, {"measurement": "highest concentrations of radioactivity in ocular tissues", "setting": "[1]; after a single dose, eyelids, conjunctiva, cornea, nictitating membrane and tears", "value": "> 1", "unit": "mg eq/g tissue"}, {"measurement": "Blood levels", "setting": "[1]; after ocular application", "value": "at the lower limit of quantification (LLOQ)"}, {"measurement": "concentrations of radioactivity in all ocular tissues except lens, aqueous humor, vitreous humor", "setting": "[1]; after single and repeat ocular applications", "value": "≥ 10", "unit": "ng eq/g tissue"}, {"measurement": "blood radioactivity", "setting": "[1]; all but one blood sample below LLOQ", "value": "< 3.06", "unit": "ng eq/mL"}, {"measurement": "concentrations in target tissues (conjunctiva, cornea, lacrimal gland) at 24 hours", "setting": "[1]; once daily ocular applications for 7 days", "value": "remained at therapeutic levels even at the 24-hour mark"}, {"measurement": "change in t1/2 on repeat dosing", "setting": "[1]; repeat dosing up to 7 days, lower bulbar conjunctiva, nictitating membrane, upper bulbar conjunctiva", "value": "no apparent change"}, {"measurement": "levels in all ocular tissues except aqueous/vitreous humor and lens", "setting": "[1]; single dose administration", "value": "higher than 10 ng equivalent drug/gram tissue"}, {"measurement": "distribution to the contralateral, non-treated eye", "setting": "[1]; unilateral dosing", "value": "minimal distribution"}, {"measurement": "AUC", "setting": "[3]; Aqueous Humor, single dose, bilateral ocular, female DB rabbits", "value": 56, "unit": "hr * ng eq./g"}, {"measurement": "Cmax", "setting": "[3]; Blood, single dose, bilateral ocular, female DB rabbits", "value": "BQL (Below Quantifiable Limit (<0.1 ng/mL))"}, {"measurement": "AUC", "setting": "[3]; Choroid/Retina, single dose, bilateral ocular, female DB rabbits", "value": 92, "unit": "hr * ng eq./g"}, {"measurement": "AUC", "setting": "[3]; Cornea, single dose, bilateral ocular, female DB rabbits", "value": 27844, "unit": "hr * ng eq./g"}, {"measurement": "AUC", "setting": "[3]; Iris/Ciliary Body, single dose, bilateral ocular, female DB rabbits", "value": 541, "unit": "hr * ng eq./g"}, {"measurement": "AUC", "setting": "[3]; Lacrimal Gland, single dose, bilateral ocular, female DB rabbits", "value": 335, "unit": "hr * ng eq./g"}, {"measurement": "AUC", "setting": "[3]; Lens, single dose, bilateral ocular, female DB rabbits", "value": 26, "unit": "hr * ng eq./g"}, {"measurement": "AUC", "setting": "[3]; Lower Bulbar Conjunctiva, single dose, bilateral ocular, female DB rabbits", "value": 13107, "unit": "hr * ng eq./g"}, {"measurement": "AUC", "setting": "[3]; Lower Eyelid, single dose, bilateral ocular, female DB rabbits", "value": 512473, "unit": "hr * ng eq./g"}, {"measurement": "AUC", "setting": "[3]; Nictitating Membrane, single dose, bilateral ocular, female DB rabbits", "value": 13091, "unit": "hr * ng eq./g"}, {"measurement": "AUC", "setting": "[3]; Optic Nerve, single dose, bilateral ocular, female DB rabbits", "value": 1127, "unit": "hr * ng eq./g"}, {"measurement": "AUC", "setting": "[3]; Sclera, single dose, bilateral ocular, female DB rabbits", "value": 3502, "unit": "hr * ng eq./g"}, {"measurement": "AUC", "setting": "[3]; Submandibular Lymph Node, single dose, bilateral ocular, female DB rabbits", "value": 635, "unit": "hr * ng eq./g"}, {"measurement": "AUC", "setting": "[3]; Tear, single dose, bilateral ocular, female DB rabbits", "value": 262299, "unit": "hr * ng eq./g"}, {"measurement": "AUC", "setting": "[3]; Upper Bulbar Conjunctiva, single dose, bilateral ocular, female DB rabbits", "value": 14296, "unit": "hr * ng eq./g"}, {"measurement": "AUC", "setting": "[3]; Upper Eyelid, single dose, bilateral ocular, female DB rabbits", "value": 68063, "unit": "hr * ng eq./g"}, {"measurement": "AUC", "setting": "[3]; Vitreous Humor, single dose, bilateral ocular, female DB rabbits", "value": 16, "unit": "hr * ng eq./g"}, {"measurement": "ocular tissue concentrations (e.g., Cmax) versus NZW rabbits (melanin binding)", "setting": "[3]; single dose to DB rabbits", "value": "not significantly different from NZW rabbits"}]}]}
